From the NIST ThermoML archive (doi:10.1016/j.tca.2015.08.011)

Legend:
[1] = 101.33 kPa, Crystal, Laser pulse heating
[2] = molar heat capacity at constant pressure; conditions: 101.33 kPa, Crystal, Small sample (50 mg) DSC

[Ce+4].[O-2].[O-2] [ceric oxide]
Conditions | molar heat capacity at constant pressure, [2] [J/K/mol] | thermal conductivity, [1] [W/m/K]
298.15 K | – | 15.15
323.15 K | 57.9 | –
373.15 K | 62.1 | –
423.15 K | 65.42 | –
473.15 K | 67.99 | –
523.15 K | 69.93 | –
573.15 K | 71.34 | –
623.15 K | 72.32 | –
673.15 K | 72.96 | –
723.15 K | 73.34 | –
773.15 K | 73.53 | 6.05
823.15 K | 73.6 | –
873.15 K | 73.58 | –
923.15 K | 73.53 | –
973.15 K | 73.48 | –
1023.1 K | 73.44 | –
1073.2 K | 73.46 | –
1123.2 K | 73.51 | –
1173.2 K | 73.61 | –
1273.2 K | – | 2.7
